Test results reported in patent US20250388604A1, “Compounds and Their Use as PDE4 Activators” (Mironid Limited, priority 2022, published 2025).

What was measured:
m-IMCD3 cells = assay: Inhibition of PGE2-stimulated in vitro cyst formation in m-IMCD3 cells; assay type: cell-based, mouse; settings: Mus musculus, mIMCD3, 144 h, 3 μM; mean cyst area, 100% for (DMSO + PGE2) and 0% for DMSO control; 6 days of culture; read-out: % Cyst area after incubation with 3 μM test compound
Outline: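 m-IMCD3 cells embedded in collagen I/Matrigel 3D culture; 18–24 h after plating, compound (0.1% DMSO final) plus PGE2 (100 nM final) added, replenished after 2 or 3 days. After 6 days, z-stack imaging gave mean cyst area, normalized to DMSO+PGE2 (100%) and DMSO (0%).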

[1] = system: m-IMCD3 cells expressing PDE4 long forms; assay: cAMP levels in PGE2-stimulated 3D m-IMCD3 cell culture media; assay type: cell-based; settings: Mus musculus, mIMCD3; 3 μM test compound; compared to 100% for (DMSO + PGE2); read-out: cAMP level (% of PGE2-stimulated)
Experimental: HEK 293 and MDCK cells (Public Health England, Cell Culture Collections) were maintained in Dulbecco's Modified Eagle's Medium (DMEM) supplemented with 10% (v/v) fetal bovine serum (FBS) (Seralab), 2 mM L-glutamine and 100 U/mL penicillin streptomycin cocktail (ThermoFisher); termed complete media. Clonal HEK 293 cell lines were maintained in complete media supplemented with 0.6 mg/ml G418 (Enzo Life Sciences). Mouse inner medullary collecting duct (m-IMCD3) cells [American Type Culture Collection (ATCC)] were maintained in media consisting of DMEM/Hams F-12 50/50 Mix (DMEM F12; Corning) supplemented with penicillin streptomycin cocktail (100 U/mL) and FBS (10% v/v) (DMEM F12-10% FBS).
Activation of intracellular PDE4 long forms leads to a reduction of both intracellular cAMP and externalised cAMP (Omar et al., PNAS 116: 13320-13329, 2019). This reduction may be measured in the cell culture media supernatant of 3D cystic cell cultures, such as in the m-IMCD3 cell cyst suppression assay described in Experiment 3.
Following the completion of the m-IMCD3 cell cyst suppression assay (Experiment 3), the cAMP level in the assay media from individual or pooled assay wells was measured using a cAMP ELISA kit (Enzo Life Sciences) or a LANCE Ultra cAMP kit (PerkinElmer) according to the manufacturer's instructions.

Compound	activity at 3 µM (m-IMCD3 cells) [%]	activity at 3 µM [1] [%]
CC(C)CC(=O)N1Cc2sc(N3C4CCC3CNC4)nc2C(C)(C)C1 [Example 257, 1-(2-(3,8-diazabicyclo[3.2.1]octan-8-yl)-7,7-dimethyl-6,7-dihydrothiazolo[5,4-c]pyridin-5(4H)-yl)-3-methylbutan-1-one]	-3	36
CC1(C)CN(C(=O)CC2CCC3(CC2)COC3)Cc2sc(N3C4CCC3CNC4)nc21 [Example 260, 1-(2-(3,8-diazabicyclo[3.2.1]octan-8-yl)-7,7-dimethyl-6,7-dihydrothiazolo[5,4-c]pyridin-5(4H)-yl)-2-(2-oxaspiro[3.5]nonan-7-yl)ethan-1-one]	10	52
CC(C)C(=O)N1Cc2sc(N3C4CCC3CNC4)nc2CC1(C)C [Example 268, 1-(2-(3,8-diazabicyclo[3.2.1]octan-8-yl)-6,6-dimethyl-6,7-dihydrothiazolo[5,4-c]pyridin-5(4H)-yl)-2-methylpropan-1-one]	1	39
O=C(CC1CCCC1)N1CCc2nc(N3C4CCCC3CNC4)sc2C1 [Example 273, 1-(2-(3,9-diazabicyclo[3.3.1]nonan-9-yl)-6,7-dihydrothiazolo[5,4-c]pyridin-5(4H)-yl)-2-cyclopentylethan-1-one]	-11	58
O=C(CC1CCCC1)N1CCc2nc(N3CC4CCC(C3)N4)sc2C1 [Example 276, 1-(2-(3,8-diazabicyclo[3.2.1]octan-3-yl)-6,7-dihydrothiazolo[5,4-c]pyridin-5(4H)-yl)-2-cyclopentylethan-1-one]	13	41
O=C(CC1CCCC1)N1CCc2nc(N3C[C@@H]4C[C@H]3CN4)sc2C1 [Example 277, 1-(2-((1S,4S)-2,5-diazabicyclo[2.2.1]heptan-2-yl)-6,7-dihydrothiazolo[5,4-c]pyridin-5(4H)-yl)-2-cyclopentylethan-1-one]	6	42
O=C(CC1CCCC1)N1CCc2nc(N3C[C@H]4C[C@@H]3CN4)sc2C1 [Example 279, 1-(2-((1R,4R)-2,5-diazabicyclo[2.2.1]heptan-2-yl)-6,7-dihydrothiazolo[5,4-c]pyridin-5(4H)-yl)-2-cyclopentylethan-1-one]	19	27
O=C(CC1CCCC1)N1CCc2nc(N3CC4CCCC(C3)N4)sc2C1 [Example 280, 1-(2-(3,9-diazabicyclo[3.3.1]nonan-3-yl)-6,7-dihydrothiazolo[5,4-c]pyridin-5(4H)-yl)-2-cyclopentylethan-1-one]	-10	33
O=C(CC1CCCC1)N1CCc2sc(N3C4CCC3CNC4)nc2C1 [Example 281, 1-(2-(3,8-diazabicyclo[3.2.1]octan-8-yl)-6,7-dihydrothiazolo[4,5-c]pyridin-5(4H)-yl)-2-cyclopentylethan-1-one]	-9	51
CC(C)(C)CC(=O)N1CCc2sc(N3C4CCC3CNC4)nc2C1 [Example 282, 1-(2-(3,8-diazabicyclo[3.2.1]octan-8-yl)-6,7-dihydrothiazolo[4,5-c]pyridin-5(4H)-yl)-3,3-dimethylbutan-1-one]	3	35
O=S(=O)(Cc1ccc(F)cc1)N1CCc2nc(N3C4CCC3CNC4)sc2C1 [Example 285, 2-(3,8-diazabicyclo[3.2.1]octan-8-yl)-5-((4-fluorobenzyl)sulfonyl)-4,5,6,7-tetrahydrothiazolo[5,4-c]pyridine]	-3	35
CCN1CC2CCC(C1)N2c1nc2c(s1)CN(S(=O)(=O)Cc1ccc(F)cc1)CC2 [Example 286, 2-(3-ethyl-3,8-diazabicyclo[3.2.1]octan-8-yl)-5-((4-fluorobenzyl)sulfonyl)-4,5,6,7-tetrahydrothiazolo[5,4-c]pyridine]	-2	52
O=S(=O)(Cc1ccccc1)N1CCc2nc(N3C4CCC3CNC4)sc2C1 [Example 288, 5-(benzylsulfonyl)-2-(3,8-diazabicyclo[3.2.1]octan-8-yl)-4,5,6,7-tetrahydrothiazolo[5,4-c]pyridine]	7	34
CC(C)N1CC2CCC(C1)N2c1nc2c(s1)CN(C(=O)CC1CCCC1)CC2 [Example 290, 2-cyclopentyl-1-(2-(3-isopropyl-3,8-diazabicyclo[3.2.1]octan-8-yl)-6,7-dihydrothiazolo[5,4-c]pyridin-5(4H)-yl)ethan-1-one]	-9	35
CCN1CC2CCC(C1)N2c1nc2c(s1)CN(C(=O)CC1CCCC1)CC2 [Example 291, 2-cyclopentyl-1-(2-(3-ethyl-3,8-diazabicyclo[3.2.1]octan-8-yl)-6,7-dihydrothiazolo[5,4-c]pyridin-5(4H)-yl)ethan-1-one]	3	45
O=C(N[C@H]1CCOc2ccccc21)N1CCc2nc(N3C4CCC3CNC4)sc2C1 [Example 293, 2-(3,8-diazabicyclo[3.2.1]octan-8-yl)-N—((S)-chroman-4-yl)-6,7-dihydrothiazolo[5,4-c]pyridine-5(4H)-carboxamide]	4	36
CCN1CC2CCC(C1)N2c1nc2c(s1)CN(C(=O)N[C@H]1CCOc3ccccc31)CC2 [Example 294, N—((S)-chroman-4-yl)-2-(3-ethyl-3,8-diazabicyclo[3.2.1]octan-8-yl)-6,7-dihydrothiazolo[5,4-c]pyridine-5(4H)-carboxamide]	-5	39
CCN1CCN(c2nc3c(s2)CN(C(=O)N[C@H]2CCOc4ccccc42)CC3)CC1 [Example 297, (S)—N-(chroman-4-yl)-2-(4-ethylpiperazin-1-yl)-6,7-dihydrothiazolo[5,4-c]pyridine-5(4H)-carboxamide]	9	45
CC(C)N1CC2CCC(C1)N2c1nc2c(s1)CN(C(=O)COc1ccc(F)cc1)CC2 [Example 298, 2-(4-fluorophenoxy)-1-(2-(3-isopropyl-3,8-diazabicyclo[3.2.1]octan-8-yl)-6,7-dihydrothiazolo[5,4-c]pyridin-5(4H)-yl)ethan-1-one]	-7	48
CCN1CC2CCC(C1)N2c1nc2c(s1)CN(C(=O)NCc1ccc(F)cc1)CC2 [Example 300, 2-(3-ethyl-3,8-diazabicyclo[3.2.1]octan-8-yl)-N-(4-fluorobenzyl)-6,7-dihydrothiazolo[5,4-c]pyridine-5(4H)-carboxamide]	-3	48
CCN1CC2CCC(C1)N2c1nc2c(s1)CN(C(=O)COc1ccc(F)cc1)CC2 [Example 302, 1-(2-(3-ethyl-3,8-diazabicyclo[3.2.1]octan-8-yl)-6,7-dihydrothiazolo[5,4-c]pyridin-5(4H)-yl)-2-(4-fluorophenoxy)ethan-1-one]	5	48
CCCN1CC2CCC(C1)N2c1nc2c(s1)CN(C(=O)COc1ccc(F)cc1)CC2 [Example 303, 2-(4-fluorophenoxy)-1-(2-(3-propyl-3,8-diazabicyclo[3.2.1]octan-8-yl)-6,7-dihydrothiazolo[5,4-c]pyridin-5(4H)-yl)ethan-1-one]	0	55
CCN1CCN(c2nc3c(s2)CN(S(=O)(=O)Cc2ccc(F)cc2)CC3)CC1 [Example 304, 2-(4-ethylpiperazin-1-yl)-5-((4-fluorobenzyl)sulfonyl)-4,5,6,7-tetrahydrothiazolo[5,4-c]pyridine]	13	47
